This passage reports GI50 and TGI results from PubChem BioAssay (NCI).

Test systems include HCC-2998 colon; HCT-116 colon; OVCAR-8 ovarian; UACC-257 melanoma; CAKI-1 renal; KM12 colon; UO-31 renal; HOP-92 NSCLC; DU-145 prostate; SNB-19 CNS.
Assay in all cases: inhibition of tumour cell growth, NCI panel, 48 h

Structures are written as SMILES. Values joined by “and” are separate entries in the source; they are usually repeats but may differ in a detail not shown here. Equal values may be shown once.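 Where inhibition never reached the appropriate level, the endpoint shown equals the highest concentration tested. Otherwise, values were interpolated linearly from a five-concentration, 48-hour dose response in 96-well plates. Here, GI50 denotes the concentration required for 50% inhibition of growth. TGI marks complete inhibition of growth.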

In the case of `CC(=O)[O-].CC(=O)[O-].[NH2-].[Pt+2].c1ccc2cnccc2c1`, the GI50 with HCC-2998 colon is above 100 µM; in the assay on HCT-116 colon it was 15.1 µM; with OVCAR-8 ovarian, 3.72 µM; with CAKI-1 renal, 55.1 µM; with KM12 colon it was 13.5 µM; in the assay with UO-31 renal, 22.9 µM. Besides, the GI50 is 16.2 µM with HOP-92 NSCLC, 12.2 µM in the assay with DU-145 prostate and above 100 µM in the assay with SNB-19 CNS. For the same molecule, the TGI is above 100 µM with HCC-2998 colon; 33.7 µM in the assay on HCT-116 colon; 21.7 µM in the assay with OVCAR-8 ovarian; 6.49 µM in the assay on UACC-257 melanoma; above 100 µM in the assay with CAKI-1 renal; above 100 µM in the assay with KM12 colon. Besides, the TGI was 97.5 µM in the assay with UO-31 renal, 90.6 µM in the assay with HOP-92 NSCLC, 64.2 µM in the assay with DU-145 prostate and above 100 µM with SNB-19 CNS.

Consider `CC1C(=O)C(C)C(c2ccccc2)N(N=O)C1c1ccccc1` (stereo not drawn), for which the GI50 in the assay on HCC-2998 colon is above 1000 µM; in the assay on OVCAR-8 ovarian it was 353 µM; with UO-31 renal, 268 µM; with HOP-92 NSCLC, 107 µM; with SNB-19 CNS it was 312 µM. The TGI in the assay on HCC-2998 colon is above 1000 µM; in the assay on HCT-116 colon, 354 µM; in the assay with OVCAR-8 ovarian, above 946 µM; in the assay with UACC-257 melanoma, above 897 µM; in the assay with CAKI-1 renal, above 700 µM; in the assay with KM12 colon, above 684 µM. Also, the TGI with UO-31 renal was above 829 µM; with HOP-92 NSCLC it was 78.4 µM and 264 µM; in the assay on DU-145 prostate, 567 µM; with SNB-19 CNS, above 830 µM.

As for `OCc1ccc(-c2nn(Cc3ccccc3)c3ccccc23)o1`, the GI50 in the assay on HCC-2998 colon is 15.5 µM and 14.8 µM; with HCT-116 colon, 1.65 µM and 8.72 µM; with OVCAR-8 ovarian it was 16.3 µM and 20.7 µM; in the assay on UACC-257 melanoma, 0.268 µM and 0.32 µM; with KM12 colon, 16.9 µM and 16.6 µM; in the assay with UO-31 renal, 13.7 µM and 23.8 µM. In addition, the GI50 in the assay on HOP-92 NSCLC was 10.4 µM and 12.2 µM; in the assay on DU-145 prostate, 16.6 µM and 17.8 µM; in the assay with SNB-19 CNS it was 21.5 µM and 13.7 µM. In addition, the TGI in the assay with HCC-2998 colon was 36.6 µM and 28 µM; in the assay on HCT-116 colon, 20 µM and 22.7 µM; in the assay with OVCAR-8 ovarian, 44.7 µM and 57 µM; in the assay with UACC-257 melanoma it was 0.972 µM and 1.59 µM; in the assay with CAKI-1 renal, > 63.5 µM and 34 µM; in the assay on KM12 colon, 35.2 µM and 34.5 µM. In addition, the TGI in the assay on UO-31 renal was 57.4 µM and > 84.7 µM; in the assay on HOP-92 NSCLC, 38.9 µM and 38.1 µM; with DU-145 prostate it was 36.9 µM and 43.8 µM; with SNB-19 CNS, 96.7 µM and > 52 µM.

As for `CC(=O)O[C@@H]1CC2C(C)(C)CCCC2(C)C2=C1C(=O)C(C(C)C)=CC2=O` (stereo partly drawn), the GI50 with HCC-2998 colon is 0.405 µM; in the assay on HCT-116 colon, 0.467 µM; with OVCAR-8 ovarian, 2.64 µM; in the assay with UACC-257 melanoma, 1.55 µM; in the assay with CAKI-1 renal, 1.03 µM; with KM12 colon, 1.14 µM. The GI50 in the assay on UO-31 renal is 0.519 µM; in the assay with HOP-92 NSCLC it was 0.652 µM; with DU-145 prostate, 1.09 µM; in the assay with SNB-19 CNS, 0.87 µM. Besides, the TGI is 1.62 µM with HCC-2998 colon; 2.8 µM in the assay on HCT-116 colon; 15.9 µM with OVCAR-8 ovarian; 4.29 µM in the assay on UACC-257 melanoma; 2.63 µM in the assay with CAKI-1 renal; 2.68 µM in the assay on KM12 colon. Further, the TGI is 1.8 µM in the assay with UO-31 renal, 2.1 µM in the assay on HOP-92 NSCLC, 2.48 µM in the assay on DU-145 prostate and above 100 µM in the assay with SNB-19 CNS.

Consider `C[C@@H]1COCCN1c1cc(C2(S(C)(=N)=O)CC2)nc(-c2ccnc3[nH]ccc23)n1` (stereo partly drawn), for which the GI50 in the assay with HCC-2998 colon was 2.39 µM; in the assay with HCT-116 colon, 4.05 µM; in the assay with OVCAR-8 ovarian, 5.41 µM; with UACC-257 melanoma, 11.7 µM; in the assay on CAKI-1 renal, 2.34 µM; in the assay with KM12 colon, 5.72 µM. Further, the GI50 in the assay on UO-31 renal is 2.55 µM; with HOP-92 NSCLC, 2.49 µM; in the assay on DU-145 prostate, 3.06 µM; in the assay with SNB-19 CNS it was 3.92 µM. Moreover, the TGI is above 100 µM in the assay on HCC-2998 colon; above 100 µM in the assay on HCT-116 colon; 58.5 µM with OVCAR-8 ovarian; 52.7 µM with UACC-257 melanoma; 25.5 µM in the assay on CAKI-1 renal; 63.1 µM in the assay on KM12 colon. Besides, the TGI is 22.8 µM with UO-31 renal, 31.6 µM in the assay with HOP-92 NSCLC, above 100 µM in the assay on DU-145 prostate and 42.2 µM with SNB-19 CNS.

Turning to `CCc1cc(O)c(Cl)c(C)c1Cl`, the TGI amounted to 32.7 µM with HCC-2998 colon; 31.5 µM with HCT-116 colon; 40.6 µM in the assay on OVCAR-8 ovarian; 35.6 µM in the assay with UACC-257 melanoma; 32.7 µM in the assay on CAKI-1 renal; 28.5 µM in the assay with KM12 colon. The TGI with UO-31 renal amounted to 33.2 µM; in the assay on HOP-92 NSCLC, 33.7 µM; in the assay with DU-145 prostate it was 31.2 µM; in the assay on SNB-19 CNS, 95.6 µM.

In the case of `Cc1nc2sc(C(=O)Nc3ccccc3)c(N)c2cc1C(=O)/C=C/c1ccccc1`, the GI50 in the assay on HCC-2998 colon is 1.77 µM; in the assay with HCT-116 colon, 1.46 µM; in the assay on OVCAR-8 ovarian it was 3.03 µM; with UACC-257 melanoma, 2.11 µM; in the assay on CAKI-1 renal, 1.87 µM; in the assay with KM12 colon, 1.73 µM. For the same molecule, the GI50 with UO-31 renal is 1.54 µM; in the assay on HOP-92 NSCLC, 2.07 µM; in the assay with DU-145 prostate, 1.81 µM; in the assay with SNB-19 CNS it was 1.89 µM. For the same molecule, the TGI is 3.28 µM with HCC-2998 colon; 2.97 µM with HCT-116 colon; 11.8 µM in the assay with OVCAR-8 ovarian; 5.29 µM in the assay with UACC-257 melanoma; 3.74 µM with CAKI-1 renal; 3.38 µM in the assay on KM12 colon. Further, the TGI with UO-31 renal was 2.89 µM; with HOP-92 NSCLC, 7.07 µM; in the assay with DU-145 prostate it was 3.6 µM; in the assay with SNB-19 CNS, 4.17 µM.

Regarding `COc1ccc2c3c(c(=O)n(C)c2c1OC)C=CC(C)(C)O3`, the TGI is above 100 µM in the assay with HCC-2998 colon; above 100 µM in the assay on HCT-116 colon; above 100 µM in the assay with OVCAR-8 ovarian; above 100 µM in the assay with UACC-257 melanoma; 38.4 µM in the assay on CAKI-1 renal; 77 µM in the assay with KM12 colon. Further, the TGI is 63.3 µM with UO-31 renal, 76 µM in the assay on HOP-92 NSCLC, above 100 µM with DU-145 prostate and above 100 µM in the assay on SNB-19 CNS.

With `O=C(CCl)N1c2ccccc2Sc2c1ccc1ccccc21`, the GI50 is 2.02 µM in the assay on HCC-2998 colon; 1.45 µM with HCT-116 colon; 2.13 µM with OVCAR-8 ovarian; 2.24 µM with UACC-257 melanoma; 2.05 µM with CAKI-1 renal; 6.31 µM in the assay on KM12 colon. The GI50 with UO-31 renal is 1.71 µM; in the assay on HOP-92 NSCLC it was 1.04 µM; in the assay on DU-145 prostate, 3.32 µM; in the assay with SNB-19 CNS it was 4.37 µM. Moreover, the TGI in the assay on HCC-2998 colon amounted to 3.59 µM; in the assay with HCT-116 colon, 2.78 µM; in the assay on OVCAR-8 ovarian, 5.48 µM; in the assay with UACC-257 melanoma, 5.6 µM; in the assay on CAKI-1 renal, 5.04 µM; in the assay on KM12 colon, 20.1 µM. Besides, the TGI came to 3.8 µM in the assay with UO-31 renal, 5.32 µM in the assay on HOP-92 NSCLC, 10.8 µM in the assay on DU-145 prostate and 15.1 µM in the assay on SNB-19 CNS.
